Earlier results, collected in patent US20240100168A1, “LIPID COMPOSITIONS AND METHODS OF PREPARATION THEREOF” (Wake Forest University, priority 2020, published 2024).

Tests used:
Conditions in all cases: blocks production of pro-inflammatory eicosanoids
lipoxygenases = system: lipoxygenases
COX1 = COX1 (Homo sapiens, UniProt P23219)
COX2 = biological target: T1, COX2 (Homo sapiens, UniProt P35354)
T1 sequence (P35354 18-604): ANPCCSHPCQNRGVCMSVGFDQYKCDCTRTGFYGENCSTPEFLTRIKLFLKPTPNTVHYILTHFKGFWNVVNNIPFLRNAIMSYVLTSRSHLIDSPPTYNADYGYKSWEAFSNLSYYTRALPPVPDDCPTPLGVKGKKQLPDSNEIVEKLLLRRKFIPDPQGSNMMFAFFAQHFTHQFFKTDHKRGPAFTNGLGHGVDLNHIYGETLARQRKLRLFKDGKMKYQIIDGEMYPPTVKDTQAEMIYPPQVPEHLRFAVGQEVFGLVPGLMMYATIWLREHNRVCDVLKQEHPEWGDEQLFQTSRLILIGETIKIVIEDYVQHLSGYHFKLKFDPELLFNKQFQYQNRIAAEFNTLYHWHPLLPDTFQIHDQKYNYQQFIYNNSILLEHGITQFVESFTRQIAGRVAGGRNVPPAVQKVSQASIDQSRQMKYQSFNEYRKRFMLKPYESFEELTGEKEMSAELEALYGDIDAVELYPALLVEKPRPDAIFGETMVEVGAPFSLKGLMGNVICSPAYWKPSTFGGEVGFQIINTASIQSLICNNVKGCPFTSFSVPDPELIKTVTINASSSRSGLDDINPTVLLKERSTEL

COX1, sequence (P23219 24-599): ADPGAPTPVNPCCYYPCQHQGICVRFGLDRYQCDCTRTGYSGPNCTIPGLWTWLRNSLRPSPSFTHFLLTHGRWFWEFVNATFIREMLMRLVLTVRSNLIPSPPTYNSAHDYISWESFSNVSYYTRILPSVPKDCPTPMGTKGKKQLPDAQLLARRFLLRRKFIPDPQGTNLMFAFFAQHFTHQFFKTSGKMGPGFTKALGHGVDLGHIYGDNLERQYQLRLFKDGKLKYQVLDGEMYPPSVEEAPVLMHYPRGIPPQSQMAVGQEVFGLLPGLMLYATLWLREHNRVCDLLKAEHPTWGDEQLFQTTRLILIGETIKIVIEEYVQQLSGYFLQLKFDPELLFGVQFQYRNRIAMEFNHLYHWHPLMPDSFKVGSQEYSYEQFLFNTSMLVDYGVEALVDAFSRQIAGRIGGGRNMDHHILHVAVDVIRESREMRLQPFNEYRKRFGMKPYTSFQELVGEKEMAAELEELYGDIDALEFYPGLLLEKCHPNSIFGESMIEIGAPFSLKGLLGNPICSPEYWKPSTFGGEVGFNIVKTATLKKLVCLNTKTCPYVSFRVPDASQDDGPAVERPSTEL

CC/C=C\C/C=C\C/C=C\C/C=C\CCCCCCC(=O)O [ETA, 8Z,11Z,14Z,17Z-eicosatetraenoic acid]
dual inhibitor: inhibition of lipoxygenases (lipoxygenases) | inhibition of COX1 (COX1) | inhibition of COX2 (COX2)
